Source: patent publication US9809597B2, “Ganciclovir derivatives for modulating innate and adaptive immunity and for use in immunotherapy” (The Board of Trustees of the Leland Stanford Junior …, priority 2015, dated 2017)

How the values were obtained:
[1] = tested on: wildtype and STING^gt/gt mice with EAE; test: EAE induction and analysis; format: in vivo, mouse
[2] = tested on: BV-2 microglia; test: siRNA knockdown (STING, IRF3, Stat1, Jak2), then RT-PCR for CXCL10; format: cell-based, mouse
Description: Smartpool siRNAs against mouse targets were bought from Dharmacon and transfected in microglia cells using Viromer Blue from Lipocalyx at a concentration of 50 nM according to manufacturer's instructions. Drugs were added cells after 24 hours of transfection and assays done 24 hours after addition of drugs.
RNA was isolated from cells using RNeasy mini kit from Qiagen. DNased RNA was converted to cDNA using SuperScript III reverse transcriptase kit (Life technologies). The cDNA was used to quantify specific targets using SYBR green in Roche Lightcycler 480. ΔΔCt values normalized against the experimental control to determine fold change in mRNA for each sample compared to untreated or vehicle treated control. β-actin or Ubc or both were used as housekeeping genes. Primer sequences were obtained from PrimerBank. Fold change is shown compared to the vehicle treated or untreated cells, unless otherwise noted.

[3] = tested on: THP-1 human monocyte cells; test: RT-PCR for CXCL10 in THP-1 cells; format: cell-based; settings: 200 μM, 8-24 hours
Description: BV-2 mouse microglia cells were grown in DMEM+10% FBS and THP-1 human monocyte cells were grown in RPMI-40+10% FBS+0.05 mM β-mercaptoethanol at 37° C., 5% CO2. Adherent cells were split using 1×TrypLE (Gibco). For cellular assays, cells were treated with the following concentrations of drugs as indicated in the DMEM without serum: 100-200 μM ganciclovir, 10 ng/ml IFNγ (R&D systems), 100 ng/ml LPS (Sigma-Aldrich), 1-10 μM Fludarabine (Selleckchem), 1 μM Ruxolitinib (Selleckchem), 1 μM TG-101348 (Selleckchem), 1 μM Amlexanox (Tocris bioscience) unless otherwise noted. All experiments were run in triplicates and replicated at least 3 times with cell lines and at least twice with primary microglia. Average data are shown for cell lines and representative data are shown for primary cells. Secreted signaling proteins were measured in supernatants from cultured cells stimulated with GCV and conditioned for 24 hours in the absence of serum using two independent Luminex arrays (Human Immune Monitoring Center, Stanford and Eve technologies, Canada). Nitrite assay was performed on conditioned culture supernatants of cells stimulated with drugs for 24 hours using the Griess Reagent System (Promega) according to manufacturer's instructions. To assess cellular viability, cell confluence was measured using an automated microscope (Cellavista; Roche). […]

[4] = STING^gt/gt mice with EAE, day 18
[5] = STING^gt/gt mice, 18 days following disease induction
[6] = cerebella of wildtype mice with EAE, day 18
[7] = BV-2 microglia, siRNA 24 hours, then 200 μM for 24 hours

## Nc1nc(O)c2ncn(COC(CO)CO)c2n1 [GCV, Ganciclovir]
[1]; [4]
  overall Iba1 immunoreactivity: trend towards reducing
  overall cell proliferation: no reduction
  proliferating T-cells: no reduction
  proliferating microglia: no reduction
[1]; [5]
  disease severity and incidence compared to untreated mice: not significantly different
  lethality compared to untreated mice: even higher
[1]; STING^gt/gt mice, GCV 100 mg/kg daily
  effect on EAE in mice lacking STING: only partially ameliorated EAE during the early phase of disease
[1]; [6]
  CD3+BrDU+ proliferating T-cells: did not change
  Iba1+BrDU+ proliferating microglia: significantly decreased
  numbers of BrDU+ proliferating cells: significantly decreased
  numbers of Iba1+ microglia: significantly decreased
[1]; wildtype mice, 18 days following disease induction, untreated 20%
  lethality: 0%
[1]; wildtype mice, 18 days following disease induction, untreated 100%
  disease incidence: 40%
[1]; wildtype mice, GCV 100 mg/kg intra-peritoneally daily from day 3
  disease severity (EAE score): drastically reduces disease severity
[2]; BV-2 cells (siRNA) or Stat1 knockout primary microglia, 200 μM
  CXCL10 or IFNβ mRNA expression after siRNA knockdown of Stat1 and Jak2 or lack of Stat1: significantly reduced
[2]; [7]
  capacity to induce CXCL10 after siRNA knock down of STING: to a lesser extent
  potential to induce CXCL10 mRNA after siRNA knockdown of IRF3: inhibited
[3]
  induction of CXCL10 mRNA in human monocyte cell line: induced
